# Laboratory results reported in US20120101163A1, “COMPOSITION FOR INHIBITING CANCER METASTASIS” (TAIPEI MEDICAL UNIVERSITY, priority 2010, published 2012).
# How the values were obtained:
# Assay type in all cases: cell-based, Human
# HT 1080 cells [1] = test: Invasion assay (Matrigel transwell)
# Procedure: 10. Invasion Assay (Lee et al., 2005; Huang et al., 2005; Park et al., 2005)
# HT 1080 cells were used to prepare a cell suspension with an appropriate concentration by a fresh serum free medium and than placed in each upper chamber of each transwell (BD Matrigel™ Invasion Chamber 24-Well Plate 8.0 Micron). Fresh serum containing mediums with different concentrations of a test drug were added to the lower chambers of the transwells, respectively. The transwells were placed in an incubator containing 5% CO2 at 37° C. for 18 hours. After that, the medium in the upper chamber was removed and cells on the upper surface of the membrane of the transwell were wiped by a cotton swab. Finally, the cells were fixed and stained. The calculation for the invasion rate of the cells was:
# Ne: Numbers of cells crossing the membrane Nc: Numbers of total cells
# HT 1080 cells [2] = test: Cancer cell survival rate test (MTT); conditions: different concentrations, 24 hours
# Procedure: 3. Cancer Cell Survival Rate Test (Lambert et al., 1997; Yang et al., 2006)
# A medium in a culturing plate containing cells grown covering the whole bottom of the culturing plate, was removed. The cells were washed with 10 ml of PBS, and then suspended and mixed well with 10 ml of medium (a part of the cells need to be suspended with Trypsin-EDTA buffer). The numbers of the cells were calculated by a hemocytometer, and the cells were diluted to an appropriate cell concentration and added into the wells of a 24 well culturing plate by an amount of 500 μl/well. The 24 well culturing plates were placed in an incubator at 37° C. in a humidified atmosphere containing 5% CO2. After the cells were attached onto the bottom of the wells, the medium in each well was removed, and fresh mediums with different concentrations of a test drug were added into wells, respectively (if the cells were suspension cells, the fresh medium may be added into the wells, directly). Then, the 24 well culturing plates were placed in an incubator at 37° C. in a humidified atmosphere containing 5% CO2 for 24 hours. After that, an upper medium in each well was removed. The cells were washed with a PBS buffer twice, and then an MTT solution which was prepared with a medium was added to each well. […] After that, an ELISA reader was used to determine the absorbance for each well at 600 nm.
# [3] = test system: matrix metalloproteinase-9; test: Gelatin gel zymography of PMA-induced HT 1080 cells, MMP-9 activity
# Procedure: 4. Gelatin Gel Zymography (Shim et al., 2003; Park et al., 2005; Hwang et al., 2006)
# HT 1080 cells with appropriate cell numbers were cultured in 60 mm culturing plates for 12 hours, respectively. After the cells were attached onto the bottom of the plate and formed a monolayer, the medium in the plate was removed. Fresh serum free mediums with different concentrations of a test sample were added to the plates, respectively, and 100 nM PMA was added to each plate to induce the cells to express great quantities of matrix metalloproteinase-2 and matrix metalloproteinase-9, and the plates were placed in a temperature of 37° C. for 24 hours. After centrifugation, each cultured supernatant were saved and mixed with SDS-sample buffer under the same protein contents which were then injected into a 10% SDS-polyacrylamide gel (containing 1 mg/ml gelatin) and then electrophoresed. After the electrophoresis was completed, the gel was taken out and washed with 20 mM Tris-HCl containing 25% isopropanol three times; 10 minutes per time. Then the gel was equilibrated with 20 mM Tris-HCl for 30 minutes, and finally an incubate buffer (5 mM CaCl2 and 1 mM ZnCl2) was added to the gel and reacted with the gel overnight. Then the gel was stained with coomassie blue, and positions having matrix metalloproteinase activity of the gel presented a white color.
# [4] = test system: matrix metalloproteinase-9; test: Western blot analysis, MMP-9 protein expression in HT 1080 cells
# Procedure: (§1) HT 1080 cells with appropriate cell numbers were cultured in 60 mm culturing plates for 12 hours, respectively. After the cells were attached onto the bottom of the plate and formed a monolayer, the medium in the plate was removed. Fresh serum-free mediums with different concentrations of a test drug were added to the plates, respectively, and 100 nM PMA was added to each plate to induce the cells to express great quantities of matrix metalloproteinase-2 and matrix metalloproteinase-9, and the plates were placed in a temperature of 37° C. for 24 hours. A quantitatively cultured supernatant in each plate was centrifuged or protein was extracted from cells in each plate to be quantitated, and then an SDS-sample buffer containing 2-ME was added therein to form a mixture. The mixture was injected into a 10% SDS-polyacrylamide gel […] and then electrophoresed. After electrophoresis was completed, the proteins in the gel were transferred to a PVDF membrane. The PVDF membrane was equilibrated with gelatin-NET at room temperature for 30 minutes. […]
# [5] = test system: matrix metalloproteinase-2; test: Western blot analysis, MMP-2 protein expression in HT 1080 cells
# Procedure: as §1
# [6] = about 0.1-2 mM, stated as embodiment, 'and/or' MMP-2
# [7] = 0.4, 0.8, 1.2, and 1.6, 24 hours, Western blotting
smiles,measurement,setting,value
"NC(CCC(=O)NO)C(=O)O [DH, L-Glutamic acid γ-hydroxamate]",IC50,"HT 1080 cells [1]; Homo sapiens, HT-1080, 0.8, 1.6 and 2.4 mM, 18 hours, read-out: IC50 HT 1080 crossing membrane to the lower chamber (invasion)",1260 µM
same,inhibition rate to cancer cell invasion,"HT 1080 cells [1]; about 0.1-3 mM, stated as embodiment",40-85%
same,cytotoxicity to HT 1080 cells,HT 1080 cells [2],no significant cytotoxicity
same,protein activity of matrix metalloproteinase-9 secreted out of and left in HT 1080 cells,"[3]; 0.4, 0.8, 1.2, and 1.6, 24 hours",also decreased
same,inhibition rate to the activity of matrix metalloproteinase-9,[3]; HT 1080 cells treated 24 hours,greater than 50%
same,matrix metalloproteinase-9 inhibiting activity,"[3]; HT 1080 cells, 0.4, 0.8, 1.2 and 1.6 mM, 24 hours",increased while the concentration thereof was increased
same,inhibition rate to the protein activity of matrix metalloproteinase-9 of a cancer cell,[3]; [6],40-70%
same,protein expression amount of matrix metalloproteinase-9 secreted out of and left in HT 1080 cells,[4]; [7],all decreased
same,inhibition rate to the protein expression amount of matrix metalloproteinase-9 of a cancer cell,[4]; [6],40-90%
same,protein expression amount of matrix metalloproteinase-2 secreted out of and left in HT 1080 cells,[5]; [7],all decreased
same,inhibition rate to the protein expression amount of metalloproteinase-2 of a cancer cell,"[5]; about 0.1-2 mM, stated as embodiment, 'and/or' MMP-9",40-90%
